Laboratory results reported in ChEMBL document CHEMBL1821689, “1,6-Disubstituted indole derivatives as selective human neuronal nitric oxide synthase inhibitors” (Bioorg Med Chem Lett, 2011).
Active and inactive are the calls of the source. No cut-off for these calls is given here.

Assays:
[1] = molecular target: Nitric oxide synthase, inducible (Homo sapiens, UniProt P35228); experiment: Inhibition of recombinant human iNOS expressed in baculovirus infected insect Sf9 cells assessed as conversion of [3H]-L-arginine into [3H]-L-citrulline by radiometric method
Homo sapiens = species: Homo sapiens; experiment: Selectivity ratio of IC50 for recombinant human eNOS to IC50 for recombinant human nNOS
Nitric oxide synthase 1 = Nitric oxide synthase 1 (Homo sapiens, UniProt P29475); experiment: Inhibition of recombinant human nNOS expressed in baculovirus infected insect Sf9 cells assessed as conversion of [3H]-L-arginine into [3H]-L-citrulline by radiometric method
Nitric oxide synthase 3 = molecular target: T1, Nitric oxide synthase 3 (Homo sapiens, UniProt P29474); experiment: Inhibition of recombinant human eNOS expressed in baculovirus infected insect Sf9 cells assessed as conversion of [3H]-L-arginine into [3H]-L-citrulline by radiometric method
T1 sequence (P29474 whole entry): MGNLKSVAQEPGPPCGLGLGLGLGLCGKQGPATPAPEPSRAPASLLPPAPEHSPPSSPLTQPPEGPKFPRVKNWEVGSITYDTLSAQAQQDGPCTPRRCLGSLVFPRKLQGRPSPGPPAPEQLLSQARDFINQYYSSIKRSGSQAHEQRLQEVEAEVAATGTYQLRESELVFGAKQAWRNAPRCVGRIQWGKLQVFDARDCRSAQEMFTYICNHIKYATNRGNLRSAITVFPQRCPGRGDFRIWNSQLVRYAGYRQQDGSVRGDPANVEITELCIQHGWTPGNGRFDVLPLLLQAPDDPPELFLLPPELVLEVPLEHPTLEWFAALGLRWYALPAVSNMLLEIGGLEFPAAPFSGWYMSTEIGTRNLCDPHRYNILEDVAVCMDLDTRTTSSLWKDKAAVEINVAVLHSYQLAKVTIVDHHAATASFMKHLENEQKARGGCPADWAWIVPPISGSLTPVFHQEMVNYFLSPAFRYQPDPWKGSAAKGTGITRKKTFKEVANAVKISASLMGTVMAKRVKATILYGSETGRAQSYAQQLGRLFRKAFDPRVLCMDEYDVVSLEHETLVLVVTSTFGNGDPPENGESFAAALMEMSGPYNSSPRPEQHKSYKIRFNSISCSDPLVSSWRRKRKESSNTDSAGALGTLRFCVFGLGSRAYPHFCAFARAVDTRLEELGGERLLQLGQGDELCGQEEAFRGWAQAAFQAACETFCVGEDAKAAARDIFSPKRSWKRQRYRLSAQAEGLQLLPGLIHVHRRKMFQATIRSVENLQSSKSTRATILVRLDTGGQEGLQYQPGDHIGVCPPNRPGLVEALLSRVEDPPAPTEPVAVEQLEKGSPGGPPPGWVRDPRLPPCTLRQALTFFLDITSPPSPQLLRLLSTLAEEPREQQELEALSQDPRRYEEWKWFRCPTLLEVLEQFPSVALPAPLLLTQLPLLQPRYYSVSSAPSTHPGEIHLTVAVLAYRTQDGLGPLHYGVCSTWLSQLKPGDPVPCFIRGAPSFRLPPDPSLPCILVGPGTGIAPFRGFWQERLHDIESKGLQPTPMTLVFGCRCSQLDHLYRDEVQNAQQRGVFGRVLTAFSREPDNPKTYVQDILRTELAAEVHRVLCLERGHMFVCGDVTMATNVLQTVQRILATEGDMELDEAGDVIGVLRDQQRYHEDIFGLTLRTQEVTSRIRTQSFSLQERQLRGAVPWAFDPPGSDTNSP

[2] = molecular target: Nitric oxide sythases; iNOS & nNOS (Homo sapiens) (UniProt P29475+P35228); experiment: Selectivity ratio of IC50 for recombinant human iNOS to IC50 for recombinant human nNOS
Rattus norvegicus [3] = experiment: Antiallodynic activity in Sprague-Dawley rat model of migraine pain assessed as attenuation of cutaneous allodynia in the hind-paws at 30 mg/kg, po administered 15 mins prior to application of inflammatory soup measured between 2 to 6 hrs; format: functional, organism-based; parameters: dose 30 mg/kg
Rattus norvegicus [4] = experiment: Antiallodynic activity in Sprague-Dawley rat model of migraine pain assessed as attenuation of cutaneous allodynia in the hind-paws at 30 mg/kg, po administered 15 mins prior to application of inflammatory soup measured at 4 hrs; format: functional, organism-based; parameters: dose 30 mg/kg

Sequence of Nitric oxide synthase 1 (P29475 whole entry): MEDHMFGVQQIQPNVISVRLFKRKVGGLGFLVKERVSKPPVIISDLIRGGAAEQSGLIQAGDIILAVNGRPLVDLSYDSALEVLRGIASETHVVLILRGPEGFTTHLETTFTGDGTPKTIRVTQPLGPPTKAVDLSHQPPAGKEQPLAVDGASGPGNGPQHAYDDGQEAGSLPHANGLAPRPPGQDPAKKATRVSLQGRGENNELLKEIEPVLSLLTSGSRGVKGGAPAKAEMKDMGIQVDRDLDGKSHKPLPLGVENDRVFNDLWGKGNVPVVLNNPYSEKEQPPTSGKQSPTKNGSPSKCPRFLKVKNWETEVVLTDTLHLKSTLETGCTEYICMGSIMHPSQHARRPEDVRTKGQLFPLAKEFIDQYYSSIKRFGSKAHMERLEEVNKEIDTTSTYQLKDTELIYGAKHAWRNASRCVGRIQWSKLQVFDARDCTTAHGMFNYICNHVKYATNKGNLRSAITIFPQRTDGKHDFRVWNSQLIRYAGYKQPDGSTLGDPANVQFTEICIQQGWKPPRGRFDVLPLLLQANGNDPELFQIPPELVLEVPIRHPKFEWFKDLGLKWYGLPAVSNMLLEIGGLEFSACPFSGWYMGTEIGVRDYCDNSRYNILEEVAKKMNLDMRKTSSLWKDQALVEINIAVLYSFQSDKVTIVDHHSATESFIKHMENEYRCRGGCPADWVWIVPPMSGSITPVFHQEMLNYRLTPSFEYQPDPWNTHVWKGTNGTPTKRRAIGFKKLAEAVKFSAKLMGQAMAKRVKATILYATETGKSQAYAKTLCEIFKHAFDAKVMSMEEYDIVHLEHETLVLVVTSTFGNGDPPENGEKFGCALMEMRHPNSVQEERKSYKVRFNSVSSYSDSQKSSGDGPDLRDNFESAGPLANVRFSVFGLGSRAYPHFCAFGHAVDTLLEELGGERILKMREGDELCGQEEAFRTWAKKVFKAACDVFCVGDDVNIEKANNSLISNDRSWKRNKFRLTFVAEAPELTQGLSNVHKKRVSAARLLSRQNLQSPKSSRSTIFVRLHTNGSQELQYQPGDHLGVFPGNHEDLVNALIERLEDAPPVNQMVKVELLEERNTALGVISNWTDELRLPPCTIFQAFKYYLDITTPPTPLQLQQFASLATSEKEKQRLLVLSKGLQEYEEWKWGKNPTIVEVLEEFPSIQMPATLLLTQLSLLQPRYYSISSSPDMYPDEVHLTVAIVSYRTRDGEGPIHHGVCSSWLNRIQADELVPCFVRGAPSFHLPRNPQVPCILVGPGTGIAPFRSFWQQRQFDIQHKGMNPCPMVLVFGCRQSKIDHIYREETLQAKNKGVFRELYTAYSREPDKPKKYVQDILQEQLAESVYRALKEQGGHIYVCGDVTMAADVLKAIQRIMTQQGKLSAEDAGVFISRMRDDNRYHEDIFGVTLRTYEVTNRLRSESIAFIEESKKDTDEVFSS
Sequence of Nitric oxide sythases; iNOS & nNOS (Homo sapiens) (P29475 whole entry, looked up): as the sequence (P29475 whole entry) above
Sequence of Nitric oxide sythases; iNOS & nNOS (Homo sapiens) (P35228 whole entry, looked up): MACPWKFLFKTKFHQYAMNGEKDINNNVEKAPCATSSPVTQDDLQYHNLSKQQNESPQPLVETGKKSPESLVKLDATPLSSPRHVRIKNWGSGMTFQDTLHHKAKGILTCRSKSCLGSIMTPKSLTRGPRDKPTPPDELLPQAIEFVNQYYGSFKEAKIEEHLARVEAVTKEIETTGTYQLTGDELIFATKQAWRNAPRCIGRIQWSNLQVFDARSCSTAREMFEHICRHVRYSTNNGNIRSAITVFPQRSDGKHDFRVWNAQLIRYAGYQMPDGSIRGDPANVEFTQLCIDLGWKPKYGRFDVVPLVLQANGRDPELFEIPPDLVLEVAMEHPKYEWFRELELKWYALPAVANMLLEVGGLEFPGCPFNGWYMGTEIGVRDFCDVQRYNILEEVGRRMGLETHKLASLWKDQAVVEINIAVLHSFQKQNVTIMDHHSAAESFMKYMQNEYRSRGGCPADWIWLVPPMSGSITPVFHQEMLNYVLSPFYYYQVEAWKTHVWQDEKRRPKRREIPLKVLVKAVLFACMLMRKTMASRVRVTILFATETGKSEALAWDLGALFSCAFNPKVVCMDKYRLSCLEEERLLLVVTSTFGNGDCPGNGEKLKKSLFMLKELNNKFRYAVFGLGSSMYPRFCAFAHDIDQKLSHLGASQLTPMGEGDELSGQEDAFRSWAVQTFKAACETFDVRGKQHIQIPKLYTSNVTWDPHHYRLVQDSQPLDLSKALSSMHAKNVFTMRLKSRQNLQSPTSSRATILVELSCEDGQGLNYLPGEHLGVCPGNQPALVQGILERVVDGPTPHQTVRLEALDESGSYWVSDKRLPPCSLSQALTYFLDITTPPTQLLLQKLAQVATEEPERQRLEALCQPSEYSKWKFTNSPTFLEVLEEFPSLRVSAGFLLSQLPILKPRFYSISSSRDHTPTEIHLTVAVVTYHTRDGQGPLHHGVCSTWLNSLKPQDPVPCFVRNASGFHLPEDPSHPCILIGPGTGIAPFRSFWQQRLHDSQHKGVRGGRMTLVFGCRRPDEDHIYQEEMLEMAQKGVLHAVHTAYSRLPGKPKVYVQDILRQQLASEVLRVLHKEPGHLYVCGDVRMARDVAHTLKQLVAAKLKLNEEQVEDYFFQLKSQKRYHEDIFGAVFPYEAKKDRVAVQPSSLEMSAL
Sequence of Nitric oxide synthase, inducible (P35228 whole entry): as the sequence (P35228 whole entry, looked up) above

| Compound | IC50 [1] [µM] | Ratio IC50 (Homo sapiens) | IC50 (Nitric oxide synthase 3) [µM] | Ratio IC50 [2] | other results |
| --- | --- | --- | --- | --- | --- |
| N=C(Nc1ccc2ccn(CCN3CCCCC3)c2c1)c1cccs1 | 21 | – | – | – | – |
| N=C(Nc1ccc2ccn(CCCN3CCOCC3)c2c1)c1ccsc1 | 70 | – | – | – | – |
| CN(C)CCCCn1ccc2ccc(NC(=N)c3cccs3)cc21 | 66 | – | 2.53 | – | IC50 (Nitric oxide synthase 1): 260 nM |
| CN1CCCC1CCn1ccc2ccc(NC(=N)c3cccs3)cc21 (racemic) | 68 | – | 19 | – | IC50 (Nitric oxide synthase 1): 220 nM |
| N=C(Nc1ccc2ccn(CCCN3CCOCC3)c2c1)c1ccco1 | 36 | – | – | – | – |
| CN1CCCC1CCn1ccc2ccc(/N=C(\N)c3cccs3)cc21 (racemic) | – | 86 | – | 309 | – |
| N=C(Nc1ccc2ccn(CCCN3CCOCC3)c2c1)c1cccs1 | 82 | – | 28.3 | – | IC50 (Nitric oxide synthase 1): 700 nM |
| CNCCCn1ccc2ccc(NC(=N)c3cccs3)cc21 | – | – | 11.8 | – | – |
| N/C(=N\c1ccc2ccn(CCCN3CCOCC3)c2c1)c1cccs1 | – | 40 | – | 117 | – |
| N/C(=N\c1ccc2ccn(CCCN3CCOCC3)c2c1)c1ccoc1 | – | 19 | – | – | – |
| CN(C)CCCn1ccc2ccc(NC(=N)c3cccs3)cc21 | – | – | 23.3 | – | – |
| N/C(=N\c1ccc2ccn(CCN3CCCCC3)c2c1)c1cccs1 | – | 8 | – | 43 | – |
| CCN(CC)CCCn1ccc2ccc(NC(=N)c3cccs3)cc21 | – | – | – | – | IC50 (Nitric oxide synthase 1): 150 nM |
| N/C(=N\c1ccc2ccn(CCCN3CCOCC3)c2c1)c1ccsc1 | – | 12.1 | – | 50 | – |
| CN1CCCC(n2ccc3ccc(/N=C(\N)c4cccs4)cc32)CC1 (stereo not drawn) | – | 43 | – | – | – |
| N/C(=N\c1ccc2ccn(CCCN3CCOCC3)c2c1)c1ccco1 | – | 14 | – | 15 | – |
| N=C(Nc1ccc2ccn(CCCN3CCCC3)c2c1)c1cccs1 | – | – | 11.2 | – | IC50 (Nitric oxide synthase 1): 450 nM |

The next lines start with results.

| IC50 [1] [µM] | Ratio IC50 (Homo sapiens) | IC50 (Nitric oxide synthase 3) [µM] | Ratio IC50 [2] | Compound | other results |
| --- | --- | --- | --- | --- | --- |
| – | 68 | – | – | CCN(CC)CCCn1ccc2ccc(/N=C(\N)c3cccs3)cc21 | – |
| 72 | 50 | – | 225 | CN1CCC[C@@H]1CCn1ccc2ccc(/N=C(\N)c3cccs3)cc21 | Activity (Rattus norvegicus [3]): Active; Activity (Rattus norvegicus [4]): Active |
| – | 25 | – | – | N/C(=N\c1ccc2ccn(CCCN3CCCC3)c2c1)c1cccs1 | – |
| 72 | 120 | – | 360 | CN1CCC[C@H]1CCn1ccc2ccc(/N=C(\N)c3cccs3)cc21 | – |
| – | 19 | – | – | N/C(=N\c1ccc2ccn(CCCCn3ccnc3)c2c1)c1cccs1 | – |
| > 100 | – | – | – | N=C(Nc1ccc2ccn(CCCN3CCOCC3)c2c1)c1ccoc1 | – |
| – | – | 37.7 | – | CN1CCCC(n2ccc3ccc(NC(=N)c4cccs4)cc32)CC1 (stereo not drawn) | – |
| – | 6 | – | – | CNCCCn1ccc2ccc(/N=C(\N)c3cccs3)cc21 | – |
| > 100 | – | 23 | – | N=C(Nc1ccc2ccn(CCCCn3ccnc3)c2c1)c1cccs1 | – |
| – | 10 | – | 254 | CN(C)CCCCn1ccc2ccc(/N=C(\N)c3cccs3)cc21 | – |
| 60 | – | – | – | CN(C)CCn1ccc2ccc(N=C(N)c3cccs3)cc21 | – |
| 1.2 | 59 | 30.6 | 2 | CN1CCCC(n2ccc3ccc(NC(=N)c4ccco4)cc32)CC1 (stereo not drawn) | IC50 (Nitric oxide synthase 1): 520 nM |
